{"source": "patent US11730819B2", "about": "“Peptide derivatives having novel linkage structures” (priority 2016, dated 2023)", "target": "T1, MT1-MMP hemopexin domain (Homo sapiens, UniProt P50281)", "T1 construct": "residues Cys319-Gly511 from the human gene; His6 (N); made in house; host or cells: HEK293 cells (transient, pEXPR-IBA42 vector)", "experiment": "Fluorescence polarisation competition binding assay", "description": "The MT1-MMP hemopexin-like repeats (also known as the MT1-MMP hemopexin domain), residues Cys319-Gly511 from the human gene, were transiently expressed in HEK293 cells as secreted N-terminally His6-tagged soluble protein, using the pEXPR-IBA42 (IBA) expression vector. Following expression, the protein was purified by Nickel-NTA affinity chromatography followed by gel filtration, and purity was checked by SDS-PAGE. Batch to batch variability was also monitored by fluorescence thermal shift experiments in the presence/absence of a hemopexin domain binding bicycle.\nBinding affinity was measured using competition assays using Fluorescence Polarisation (anisotropy).\nFluoresceination may be performed on the N-terminal amino group of the peptide, which is separated from the bicycle core sequence by a sarcosine spacer (usually Sar5). This can be done during Fmoc solid phase synthesis or post-synthetically (after cyclisation with TBMB and purification) if the N-terminal amino group is unique to the peptide. Fluoresceination can also be performed on the C-terminus, usually on a Lysine introduced as the first C-terminal residue, which is then separated from the bicycle core sequence by a sarcosine spacer (usually Sar6). Thus, N-terminal tracers can have a molecular format described as Fluo-Gly-Sar5-A(BicycleCoreSequence), and (BicycleCoreSequence)-A-Sar6-K(Fluo) for a C-terminally fluoresceinated construct. Fluorescent tracers used in the Examples are A-(17-69)-A-Sar6-K(Fluo), A-(17-69-07)-A-Sar6-K(Fluo), and A-(17-69-12)-A-Sar6-K(Fluo).\nHere, a pre-formed complex of PEX with the fluorescent PEX-binding tracer is titrated with free, non-fluoresceinated bicyclic peptide. Since all 17-69-based peptides are expected to bind at the same site, the titrant will displace the fluorescent tracer from PEX. Dissociation of the complex can be measured quantitatively, and the Kd of the competitor (titrant) to the target protein determined. The advantage of the competition method is that the affinities of non-fluoresceinated bicyclic peptides can be determined accurately and rapidly.\nSubsequently, the non-fluorescent competitor bicyclic peptide (usually just the bicycle core sequence) is titrated, such that it displaces the fluorescent tracer from the target protein. The displacement of the tracer is measured and associated with a drop in fluorescence polarisation. The drop in fluorescence polarisation is proportional to the fraction of target protein bound with the non-fluorescent titrant, and thus is a measure of the affinity of titrant to target protein.\nThe raw data is fit to the analytical solution of the cubic equation that describes the equilibria between fluorescent tracer, titrant, and binding protein. The fit requires the value of the affinity of fluorescent tracer to the target protein, which can be determined separately by direct binding FP experiments (see previous section).", "key": {"[1]": {"details": "human MT1-MMP, bicycle peptides, read-out: Binding Affinity Ki (h)"}}, "note": "pKd, pKi: −log10 of the molar value. Where two headings read alike, the source gives them in different places. Numbered stars: 1 amine (or outer) side, 2 acyl side, 3 side chain; on linkers, the order of the positions; unused ones are H or OH. Bridge positions count the residues as written; N and C are the ends. Square brackets hold non-standard residues; d marks the D form. Peptide text beside a SMILES is read from it. 1Nal = N[C@@H](Cc1cccc2ccccc12)C(=O)O; TBMB = c1c(C[*:1])cc(C[*:3])cc1C[*:2]; Tle = CC(C)(C)[C@H](N)C(=O)O; βAla = NCCC(=O)O; Sar = CNCC(=O)O", "data": [{"smiles": "CC(=O)N[C@@H](C)C(=O)N[C@H]1CN(C)Cc2cc3cc(c2)CN(C)C[C@@H](C(N)=O)NC(=O)[C@H](C(C)(C)C)NC(=O)[C@H](CC(=O)O)NC(=O)[C@H](Cc2ccc(O)cc2)NC(=O)[C@H](Cc2ccccc2)NC(=O)[C@H](CC(=O)O)NC(=O)[C@H](CCC(=O)O)NC(=O)[C@H](CSC3)NC(=O)[C@@H](C)NC(=O)[C@H](Cc2cccc3ccccc23)NC(=O)[C@H](CCC(=O)O)NC(=O)[C@H](CC(N)=O)NC(=O)[C@@H](C)NC1=O", "note": "[17-69-07-N426, Ac-A(Dap(Me))(D-Ala)NE(1Nal)(D-Ala)CEDFYD(tBuGly)(Dap(Me))]", "values": [{"measurement": "pKd", "setting": "competition FP, bicycle peptides, read-out: measured affinity (Kd) to MT1-MMP", "result": 9.44}]}, {"smiles": "C[C@H](NC(=O)CN(C)C(=O)CN(C)C(=O)CN(C)C(=O)CN(C)C(=O)CN(C)C(=O)CN(C)C(=O)CN(C)C(=O)CN(C)C(=O)CN(C)C(=O)CN(C)C(=O)CCN)C(=O)N[C@H]1CN(C)Cc2cc3cc(c2)CN(C)C[C@@H](C(N)=O)NC(=O)[C@H](C(C)(C)C)NC(=O)[C@H](CC(=O)O)NC(=O)[C@H](Cc2ccc(O)cc2)NC(=O)[C@H](Cc2ccccc2)NC(=O)[C@H](CC(=O)O)NC(=O)[C@H](CCC(=O)O)NC(=O)[C@H](CSC3)NC(=O)[C@@H](C)NC(=O)[C@H](Cc2cccc3ccccc23)NC(=O)[C@H](CCC(=O)O)NC(=O)[C@H](CC(N)=O)NC(=O)[C@@H](C)NC1=O", "note": "[17-69-07-N451, (B-Ala)-Sar10-A(Dap(Me))(D-Ala)NE(1Nal)(D-Ala)CEDFYD(tBuGly)(Dap(Me))]", "values": [{"measurement": "pKi", "setting": "[1]", "result": 8.43}]}, {"smiles": "CC(=O)NCCC(=O)N(C)CC(=O)N(C)CC(=O)N(C)CC(=O)N(C)CC(=O)N(C)CC(=O)N(C)CC(=O)N(C)CC(=O)N(C)CC(=O)N(C)CC(=O)N(C)CC(=O)N[C@@H](C)C(=O)N[C@H]1CNCc2cc3cc(c2)CSC[C@H](NC(=O)[C@@H](C)NC(=O)[C@H](Cc2cccc4ccccc24)NC(=O)[C@H](CCC(=O)O)NC(=O)[C@H](CC(N)=O)NC(=O)[C@@H](C)NC1=O)C(=O)N[C@@H](CCC(=O)O)C(=O)N[C@@H](CC(=O)O)C(=O)N[C@@H](Cc1ccccc1)C(=O)N[C@@H](Cc1ccc(O)cc1)C(=O)N[C@@H](CC(=O)O)C(=O)N[C@@H](C(C)(C)C)C(=O)N[C@H](C(N)=O)CNC3", "note": "[17-69-07-N455, Ac-(B-Ala)-Sar10-A(Dap)(D-Ala)NE(1Nal)(D-Ala)CEDFYD(tBuGly)(Dap)]", "values": [{"measurement": "pKi", "setting": "Binding Affinity Ki (h), human MT1-MMP, bicycle peptides", "result": 8.40}]}, {"smiles": "CC(=O)N[C@H]1CN(C)Cc2cc3cc(c2)CN(C)C[C@@H](C(N)=O)NC(=O)[C@H](C(C)(C)C)NC(=O)[C@H](CC(=O)O)NC(=O)[C@H](Cc2ccc(O)cc2)NC(=O)[C@H](Cc2ccccc2)NC(=O)[C@H](CC(=O)O)NC(=O)[C@H](CCC(=O)O)NC(=O)[C@H](CSC3)NC(=O)[C@@H](C)NC(=O)[C@H](Cc2cccc3ccccc23)NC(=O)[C@H](CCC(=O)O)NC(=O)[C@H](CC(N)=O)NC(=O)[C@@H](C)NC1=O", "note": "[17-69-07-N461, Ac(Dap(Me))(D-Ala)NE(1Nal)(D-Ala)CEDFYD(tBuGly)(Dap(Me))]", "values": [{"measurement": "pKi", "setting": "[1]", "result": 8.22}]}, {"smiles": "CC(=O)NCCC(=O)N(C)CC(=O)N(C)CC(=O)N(C)CC(=O)N(C)CC(=O)N(C)CC(=O)N(C)CC(=O)N(C)CC(=O)N(C)CC(=O)N(C)CC(=O)N(C)CC(=O)N[C@@H](C)C(=O)N[C@H]1CN(C)Cc2cc3cc(c2)CN(C)C[C@@H](C(N)=O)NC(=O)[C@H](C(C)(C)C)NC(=O)[C@H](CC(=O)O)NC(=O)[C@H](Cc2ccc(O)cc2)NC(=O)[C@H](Cc2ccccc2)NC(=O)[C@H](CC(=O)O)NC(=O)[C@H](CCC(=O)O)NC(=O)[C@H](CSC3)NC(=O)[C@@H](C)NC(=O)[C@H](Cc2cccc3ccccc23)NC(=O)[C@H](CCC(=O)O)NC(=O)[C@H](CC(N)=O)NC(=O)[C@@H](C)NC1=O", "note": "[17-69-07-N454, Ac-(B-Ala)-Sar10-A(Dap(Me))(D-Ala)NE(1Nal)(D-Ala)CEDFYD(tBuGly)(Dap(Me))]", "values": [{"measurement": "pKi", "setting": "[1]", "result": 8.52}]}, {"smiles": "CC(=O)N[C@@H](C)C(=O)N[C@H]1CN(C)Cc2cc3cc(c2)CN(C)C[C@H](NC(=O)[C@@H](C)NC(=O)[C@H](Cc2cccc4ccccc24)NC(=O)[C@H](CCC(=O)O)NC(=O)[C@H](CC(N)=O)NC(=O)[C@@H](C)NC1=O)C(=O)N[C@@H](CCC(=O)O)C(=O)N[C@@H](CC(=O)O)C(=O)N[C@@H](Cc1ccccc1)C(=O)N[C@@H](Cc1ccc(O)cc1)C(=O)N[C@@H](CC(=O)O)C(=O)N[C@@H](C(C)(C)C)C(=O)N[C@H](C(N)=O)CSC3", "note": "[17-69-07-N470, Ac-A(Dap(Me))(D-Ala)NE(1Nal)(D-Ala)(Dap(Me))EDFYD(tBuGly)C]", "values": [{"measurement": "pKi", "result": 8.08}]}, {"smiles": "CC(=O)N[C@@H](C)C(=O)N[C@H]1CNCc2cc3cc(c2)CSC[C@H](NC(=O)[C@@H](C)NC(=O)[C@H](Cc2cccc4ccccc24)NC(=O)[C@H](CCC(=O)O)NC(=O)[C@H](CC(N)=O)NC(=O)[C@@H](C)NC1=O)C(=O)N[C@@H](CCC(=O)O)C(=O)N[C@@H](CC(=O)O)C(=O)N[C@@H](Cc1ccccc1)C(=O)N[C@@H](Cc1ccccc1)C(=O)N[C@@H](CC(=O)O)C(=O)N[C@@H](C(C)(C)C)C(=O)N[C@H](C(N)=O)CNC3", "note": "[17-69-07-N428, Ac-A(Dap)(D-Ala)NE(1Nal)(D-Ala)CEDFF9D(tBuGly)(Dap)]", "values": [{"measurement": "pKd", "result": 8.46}]}, {"smiles": "CC(=O)N[C@@H](C)C(=O)N[C@H]1CN(C)Cc2cc3cc(c2)CN(C)C[C@H](NC(=O)[C@@H](C)NC(=O)[C@H](Cc2cccc4ccccc24)NC(=O)[C@H](CCC(=O)O)NC(=O)[C@H](CC(N)=O)NC(=O)[C@@H](C)NC1=O)C(=O)N[C@@H](CCC(=O)O)C(=O)N[C@@H](CC(=O)O)C(=O)N[C@@H](Cc1ccccc1)C(=O)N[C@@H](Cc1ccc(O)cc1)C(=O)N[C@@H](CC(=O)O)C(=O)N[C@@H](C(C)(C)C)C(=O)N[C@H](C(N)=O)CN(C)C3", "note": "[17-69-07-N474, Ac-A(Dap(Me))(D-Ala)NE(1NaI)(D-Ala)(Dap(Me))EDFYD(tBuGly)(Dap(Me))]", "values": [{"measurement": "pKd", "result": 8.10}, {"measurement": "pKi", "result": 8.12}]}, {"smiles": "C[C@H](NC(=O)CN(C)C(=O)CN(C)C(=O)CN(C)C(=O)CN(C)C(=O)CN(C)C(=O)CN(C)C(=O)CN(C)C(=O)CN(C)C(=O)CN(C)C(=O)CN(C)C(=O)CCN)C(=O)N[C@H]1CSCc2cc3cc(c2)CSC[C@H](NC(=O)[C@@H](C)NC(=O)[C@H](Cc2cccc4ccccc24)NC(=O)[C@H](CCC(=O)O)NC(=O)[C@H](CC(N)=O)NC(=O)[C@@H](C)NC1=O)C(=O)N[C@@H](CCC(=O)O)C(=O)N[C@@H](CC(=O)O)C(=O)N[C@@H](Cc1ccccc1)C(=O)N[C@@H](Cc1ccc(O)cc1)C(=O)N[C@@H](CC(=O)O)C(=O)N[C@@H](C(C)(C)C)C(=O)N[C@H](C(N)=O)CSC3", "note": "[17-69-07-N241, H-(β-Ala)-Sar10-Ala-Cys-(D-Ala)-Asn-Glu-(1Nal)-(D-Ala)-Cys-Glu-Asp-Phe-Tyr-Asp-(tBuGly)-Cys-NH2, reference compound] (H-[βAla][Sar][Sar][Sar][Sar][Sar][Sar][Sar][Sar][Sar][Sar]AC[dA]NE[1Nal][dA]CEDFYD[Tle]C-NH2; linker 13-19-26 via TBMB)", "values": [{"measurement": "pKd", "result": 9.64}]}, {"smiles": "C#CCCC(=O)NCCC(=O)N(C)CC(=O)N(C)CC(=O)N(C)CC(=O)N(C)CC(=O)N(C)CC(=O)N[C@@H](C)C(=O)N[C@H]1CN(C)Cc2cc3cc(c2)CN(C)C[C@@H](C(N)=O)NC(=O)[C@H](C(C)(C)C)NC(=O)[C@H](CC(=O)O)NC(=O)[C@H](Cc2ccc(O)cc2)NC(=O)[C@H](Cc2ccccc2)NC(=O)[C@H](CC(=O)O)NC(=O)[C@H](CCC(=O)O)NC(=O)[C@H](CSC3)NC(=O)[C@@H](C)NC(=O)[C@H](Cc2cccc3ccccc23)NC(=O)[C@H](CCC(=O)O)NC(=O)[C@H](CC(N)=O)NC(=O)[C@@H](C)NC1=O", "note": "[17-69-07-N472, (PYA)-(B-Ala)-Sar5-A(Dap(Me))(D-Ala)NE(1Nal)(D-Ala)CEDFYD(tBuGly)(Dap(Me))]", "values": [{"measurement": "pKi", "setting": "[1]", "result": 8.47}]}]}
